# Results reported in patent US20060069132A1, “Azolecarboxamide herbicides” (priority 2004, published 2006).
# Key:
# johnsongrass = experiment: Test C pre-/postemergence herbicide test; assay type: in vivo, Sorghum halepense
# How it was run: (§1)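 Visual injury scores run from 0 (no effect) to 100 (complete control), assessed relative to untreated controls 12 to 14 days after treatment in the greenhouse. Chemicals were formulated in a non-phytotoxic solvent mixture with surfactant and applied to soil after planting or to emerged plants at the 1- to 4-leaf stage.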
# morningglory [1] = experiment: Test C pre-/postemergence herbicide test; assay type: in vivo, Ipomoea coccinea; parameters: key to Plant response rating, Morningglory: 0 = no effect, 100 = complete control
# How it was run: as §1
# [2] = system: smallflower umbrella sedge; experiment: Test C flooded paddy test; assay type: in vivo, Cyperus difformis; settings: for Plant response rating, Sedge, Umbrella: 500 g ai/ha, visual rating after 12 to 14 days
# lambsquarters = experiment: Test C pre-/postemergence herbicide test; assay type: in vivo, Chenopodium album
# How it was run: as §1
# morningglory [3] = experiment: Test A pre-/postemergence herbicide test; assay type: in vivo, Ipomoea spp.
# How it was run: (§2)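 Pre: seeded sandy loam, directed soil spray, compound in non-phytotoxic solvent + surfactant. Post: 1–2-leaf plants (2–10 cm), sprayed to runoff. Greenhouse ~10 d; visual injury vs untreated, 0–100 scale.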
# rice = experiment: Test B pre-/postemergence herbicide test; assay type: in vivo, Oryza sativa; settings: preemergence; for Rice plant response rating (0 to 100 scale): 125 g ai/ha; for Plant response rating, Rice: 500 g ai/ha
# How it was run: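 Response was scored visually 13 to 15 days after treatment against untreated greenhouse controls, 0 meaning no effect and 100 complete control. Formulations (solvent mixture plus surfactant) went onto soil after planting, onto foliage of 1- to 4-leaf plants, and onto 2-leaf plants in a flooded paddy set including rice and barnyardgrass.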
# giant foxtail = experiment: Test A pre-/postemergence herbicide test; assay type: in vivo, Setaria faberi
# How it was run: as §2
# barnyardgrass = experiment: Test C flooded paddy test; assay type: in vivo, Echinochloa crus-galli; settings: for Plant response rating, Barnyardgrass: 500 g ai/ha, visual rating after 12 to 14 days
# How it was run: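 Plants were grown to the 1- to 4-leaf stage (2–18 cm) and then treated postemergence, or grown to the 2-leaf stage for the flooded paddy test. They were held in a greenhouse for 12 to 14 days and then scored by eye against controls, where 0 is no effect and 100 is complete control.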
# velvetleaf = experiment: Test C pre-/postemergence herbicide test; assay type: in vivo, Abutilon theophrasti
# How it was run: as §1
# [4] = 62 g ai/ha, preemergence, scale 0 to 100
# [5] = 125 g ai/ha, scale 0 (no effect) to 100 (complete control), visual, 12 to 14 days, preemergence
# [6] = 250 g ai/ha, scale 0-100, preemergence
# [7] = 500 g ai/ha, scale 0 to 100 (0 no effect, 100 complete control), visual, 12 to 14 days, preemergence
# [8] = 62 g ai/ha, scale 0 to 100 (0 no effect, 100 complete control)
# [9] = 125 g ai/ha, scale 0 to 100 (0 no effect, 100 complete control)
# [10] = 250 g ai/ha, scale of 0 to 100, 0 is no effect, 100 is complete control
# [11] = scale 0 to 100 (0 no effect, 100 complete control)
# [12] = Postemergence, 500 g ai/ha, 0 to 100 scale, 0 no effect, 100 complete control
# [13] = Postemergence, 2000 g ai/ha, 0 to 100 scale, 0 no effect, 100 complete control
# [14] = Preemergence, 2000 g ai/ha, visual rating, 0 to 100 scale (0 no effect, 100 complete control)
# [15] = preemergence, 500 g ai/ha, visual injury, 0 to 100 scale (0 no effect, 100 complete control)
# [16] = 0 = no effect, 100 = complete control
# [17] = visual rating, 0 = no effect, 100 = complete control
# [18] = Preemergence, 500 g ai/ha, scale 0 to 100, 0 no effect, 100 complete control
# [19] = Postemergence, 250 g ai/ha, 0 to 100 scale, 0 no effect, 100 complete control
# [20] = Postemergence, 1000 g ai/ha, 0 to 100 scale, 0 no effect, 100 complete control
# [21] = Preemergence, 1000 g ai/ha, visual rating, 0 to 100 scale (0 no effect, 100 complete control)
# [22] = preemergence, 250 g ai/ha, visual injury, 0 to 100 scale (0 no effect, 100 complete control)
# [23] = Postemergence, 500 g ai/ha, scale 0 to 100
# [24] = Postemergence, 250 g ai/ha, scale 0 to 100, 0 no effect, 100 complete control
# [25] = postemergence, 125 g ai/ha, scale 0 to 100
# [26] = postemergence, 62 g ai/ha, scale 0 to 100
compound,measurement,setting,value
CCc1nc(C(C)(C)C)sc1C(=O)Nc1cccc(C(=O)NCC2CC2)n1 [Compound 215],"Plant response rating, Johnsongrass",johnsongrass; [4],0
same,"Plant response rating, Johnsongrass",johnsongrass; [5],20
same,"Plant response rating, Johnsongrass",johnsongrass; [6],50
same,"Plant response rating, Johnsongrass",johnsongrass; [7],85
same,"Plant response rating, Morningglory",morningglory [1]; [4],0
same,"Plant response rating, Morningglory",morningglory [1]; [5],0
same,"Plant response rating, Morningglory",morningglory [1]; [6],0
same,"Plant response rating, Morningglory",morningglory [1]; [7],40
same,"Sedge, Umbrella plant response rating",[2]; [8],40
same,"Sedge, Umbrella plant response rating",[2]; [9],40
same,"Sedge, Umbrella plant response rating",[2]; [10],70
same,"Plant response rating, Sedge, Umbrella",[2]; [11],90
same,"Plant response rating, Lambsquarters",lambsquarters; [4],100
same,"Plant response rating, Lambsquarters",lambsquarters; [5],100
same,"Plant response rating, Lambsquarters",lambsquarters; [6],100
same,"Plant response rating, Lambsquarters",lambsquarters; [7],100
same,Morningglory plant response rating,morningglory [3]; [12],25
same,"Plant response rating, Morningglory",morningglory [3]; [13],35
same,Morningglory plant response rating,morningglory [3]; [14],55
same,Morningglory plant response rating,morningglory [3]; [15],20
same,Rice plant response rating (0 to 100 scale),rice; [16],0
same,"Plant response rating, Rice",rice; [17],0
same,"Foxtail, Giant plant response rating",giant foxtail; [12],25
same,"Plant response rating, Foxtail, Giant",giant foxtail; [13],40
same,"Foxtail, Giant plant response rating",giant foxtail; [14],75
same,"Foxtail, Giant plant response rating",giant foxtail; [15],50
same,Barnyardgrass plant response rating,barnyardgrass; [8],0
same,Barnyardgrass plant response rating,barnyardgrass; [9],0
same,Barnyardgrass plant response rating,barnyardgrass; [10],40
same,"Plant response rating, Barnyardgrass",barnyardgrass; [11],50
same,"Plant response rating, Velvetleaf",velvetleaf; [4],0
same,"Plant response rating, Velvetleaf",velvetleaf; [6],40
same,"Plant response rating, Velvetleaf",velvetleaf; [7],100
CCn1nc(C(C)(C)C)cc1C(=O)Nc1cccc(S(=O)(=O)C(F)(F)F)c1 [Compound 134],"Plant response rating (0 = no effect, 100 = complete control), Johnsongrass","johnsongrass; 62 g ai/ha, preemergence",0
same,"Plant response rating, Johnsongrass",johnsongrass; [5],40
same,Johnsongrass plant response rating,johnsongrass; [18],65
same,"Plant response rating (0 = no effect, 100 = complete control), Morningglory","morningglory [1]; 62 g ai/ha, preemergence",0
same,"Plant response rating, Morningglory",morningglory [1]; [5],0
same,Morningglory plant response rating,morningglory [1]; [18],75
same,"Sedge, Umbrella plant response rating",[2]; [8],55
same,"Sedge, Umbrella plant response rating",[2]; [9],75
same,"Sedge, Umbrella plant response rating",[2]; [10],85
same,"Plant response rating, Sedge, Umbrella",[2]; [11],85
same,"Plant response rating (0 = no effect, 100 = complete control), Lambsquarters","lambsquarters; 62 g ai/ha, preemergence",100
same,"Plant response rating, Lambsquarters",lambsquarters; [5],100
same,Lambsquarters plant response rating,lambsquarters; [18],100
same,Morningglory plant response rating,morningglory [3]; [19],10
same,"Plant response rating, Morningglory",morningglory [3]; [20],20
same,Morningglory plant response rating,morningglory [3]; [21],30
same,Morningglory plant response rating,morningglory [3]; [22],5
same,"Plant response rating, Rice","rice; visual rating 0-100, 0 no effect, 100 complete control",50
same,"Foxtail, Giant plant response rating",giant foxtail; [19],15
same,"Plant response rating, Foxtail, Giant",giant foxtail; [20],35
same,"Foxtail, Giant plant response rating",giant foxtail; [21],45
same,"Foxtail, Giant plant response rating",giant foxtail; [22],20
same,Barnyardgrass plant response rating,barnyardgrass; [8],10
same,Barnyardgrass plant response rating,"barnyardgrass; 125 g ai/ha, scale of 0 to 100, 0 is no effect, 100 is complete control",25
same,Barnyardgrass plant response rating,barnyardgrass; [10],50
same,"Plant response rating, Barnyardgrass",barnyardgrass; [11],50
same,"Plant response rating, Velvetleaf",velvetleaf; [5],90
same,Velvetleaf plant response rating,velvetleaf; [18],100
CCn1nc(C(C)(C)C)cc1C(=O)Nc1cccc(OC(F)(F)F)c1 [Compound 272],Johnsongrass plant response rating,johnsongrass; [23],55
same,"Plant response rating, Johnsongrass",johnsongrass; [24],45
same,"Plant response rating, Johnsongrass",johnsongrass; [25],40
same,"Plant response rating, Johnsongrass",johnsongrass; [26],10
same,Morningglory plant response rating,morningglory [1]; [23],100
same,"Plant response rating, Morningglory",morningglory [1]; [24],100
same,"Plant response rating, Morningglory",morningglory [1]; [25],100
same,"Plant response rating, Morningglory",morningglory [1]; [26],80
same,"Sedge, Umbrella plant response rating","[2]; 62 g ai/ha, scale 0 to 100",30
same,"Sedge, Umbrella plant response rating",[2]; [9],65
same,"Sedge, Umbrella plant response rating",[2]; [10],75
same,"Plant response rating, Sedge, Umbrella",[2]; [11],75
same,Lambsquarters plant response rating,lambsquarters; [23],100
same,"Plant response rating, Lambsquarters",lambsquarters; [24],100
same,"Plant response rating, Lambsquarters",lambsquarters; [25],100
same,"Plant response rating, Lambsquarters",lambsquarters; [26],100
same,Morningglory plant response rating,morningglory [3]; [12],100
same,"Plant response rating, Morningglory",morningglory [3]; [13],100
same,Morningglory plant response rating,morningglory [3]; [14],55
same,Morningglory plant response rating,morningglory [3]; [15],20
same,Rice plant response rating (0 to 100 scale),rice; [16],0
same,"Plant response rating, Rice",rice; [17],20
same,"Foxtail, Giant plant response rating",giant foxtail; [12],45
same,"Plant response rating, Foxtail, Giant",giant foxtail; [13],95
same,"Foxtail, Giant plant response rating",giant foxtail; [14],100
same,"Foxtail, Giant plant response rating",giant foxtail; [15],90
same,Barnyardgrass plant response rating,barnyardgrass; [8],0
same,Barnyardgrass plant response rating,barnyardgrass; [9],0
same,Barnyardgrass plant response rating,barnyardgrass; [10],10
same,"Plant response rating, Barnyardgrass",barnyardgrass; [11],30
same,Velvetleaf plant response rating,velvetleaf; [23],100
same,"Plant response rating, Velvetleaf",velvetleaf; [24],100
same,"Plant response rating, Velvetleaf",velvetleaf; [25],95
same,"Plant response rating, Velvetleaf",velvetleaf; [26],85
